Experimental data from patent EP1068805A1, “Dietetic foods and pharmaceutical preparations inhibiting blood coagulation” (CPC INTERNATIONAL INC., priority 1996, dated 1997).
Like-named read-outs stand apart in the source and are kept apart here.

Assays:
[1] = biological target: T1, Υ-glutamylcarboxylase (Rattus norvegicus, UniProt O88496); experiment: Inhibition of carboxylase activity in salt-washed liver microsomes, rat system; type: biochemical, rats of the Lewis strain; conditions: cofactor KH2; mean of triplicate experiments with S.E.M.; read-out: I-50 (µM) in rat system
T1 sequence (O88496 1-758): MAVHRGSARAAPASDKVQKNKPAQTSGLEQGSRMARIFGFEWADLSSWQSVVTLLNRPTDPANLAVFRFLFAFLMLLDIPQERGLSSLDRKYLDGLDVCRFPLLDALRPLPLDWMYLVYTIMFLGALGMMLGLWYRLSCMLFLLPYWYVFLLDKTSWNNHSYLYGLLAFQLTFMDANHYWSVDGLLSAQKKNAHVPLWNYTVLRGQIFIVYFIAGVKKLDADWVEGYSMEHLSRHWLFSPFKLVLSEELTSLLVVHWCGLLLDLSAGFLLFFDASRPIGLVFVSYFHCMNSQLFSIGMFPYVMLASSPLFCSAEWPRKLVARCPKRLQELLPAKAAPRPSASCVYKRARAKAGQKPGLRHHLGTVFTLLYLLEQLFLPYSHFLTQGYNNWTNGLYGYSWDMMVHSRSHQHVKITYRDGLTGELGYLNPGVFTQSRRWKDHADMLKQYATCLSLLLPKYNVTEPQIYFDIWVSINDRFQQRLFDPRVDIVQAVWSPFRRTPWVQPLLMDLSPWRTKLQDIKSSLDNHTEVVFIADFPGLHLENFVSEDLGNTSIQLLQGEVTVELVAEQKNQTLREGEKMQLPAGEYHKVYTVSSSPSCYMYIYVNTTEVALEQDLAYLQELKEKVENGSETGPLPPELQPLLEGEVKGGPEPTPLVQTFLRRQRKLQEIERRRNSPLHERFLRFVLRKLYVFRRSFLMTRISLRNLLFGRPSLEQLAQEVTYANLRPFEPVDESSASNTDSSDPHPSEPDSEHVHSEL
Excerpt: (§1) Prenylquinones like phylloquinone (vitamin K1), ubiquinone and plastoquinone function as co-enzymes during the conversion of glutamate into γ-carboxyl-glutamate (Gla), which is an essential step in the formation of the blood coagulation factors. The active form of vitamin K is the quinol (KH2), the oxidation of which provides the energy required for Gla formation. In this reaction KH2 is converted into vitamin K epoxide (KO), which is recycled in two steps by the action of an enzyme called KO-reductase.
(§2) In vitro systems were used to test either the γ-glutamylcarboxylase or KO-reductase. Salt-washed microsomes were prepared from the livers of normal cows and from normal and vitamin K-deficient rats of the Lewis strain.
(§3) Inhibition curves were prepared at a wide concentration range of prenylquinones (UQ-9, UQ-10, and PQ-9) using the cofactor vitamin K either in its quinol, its quinone, or in its epoxide form. From these curves the inhibitor concentrations required for 50% inhibition (I-50) were calculated (dotted lines in Fig. 1) for the various carboxylating enzyme systems from the cow as well as from rats. Incubations were performed under standard conditions, the inhibitors were added after solubilization in Triton X- 114. All points in Fig. 1 represent the means of duplicate experiments. 1-50 values were calculated as shown by the dotted lines.

[2] = biological target: T2, Υ-glutamylcarboxylase (Bos taurus, UniProt Q07175); experiment: Inhibition of carboxylase activity in salt-washed liver microsomes, bovine system; type: biochemical; conditions: cofactor KH2; mean of triplicate experiments with S.E.M.; read-out: I-50 (µm) in bovine system
T2 sequence (Q07175 2-758): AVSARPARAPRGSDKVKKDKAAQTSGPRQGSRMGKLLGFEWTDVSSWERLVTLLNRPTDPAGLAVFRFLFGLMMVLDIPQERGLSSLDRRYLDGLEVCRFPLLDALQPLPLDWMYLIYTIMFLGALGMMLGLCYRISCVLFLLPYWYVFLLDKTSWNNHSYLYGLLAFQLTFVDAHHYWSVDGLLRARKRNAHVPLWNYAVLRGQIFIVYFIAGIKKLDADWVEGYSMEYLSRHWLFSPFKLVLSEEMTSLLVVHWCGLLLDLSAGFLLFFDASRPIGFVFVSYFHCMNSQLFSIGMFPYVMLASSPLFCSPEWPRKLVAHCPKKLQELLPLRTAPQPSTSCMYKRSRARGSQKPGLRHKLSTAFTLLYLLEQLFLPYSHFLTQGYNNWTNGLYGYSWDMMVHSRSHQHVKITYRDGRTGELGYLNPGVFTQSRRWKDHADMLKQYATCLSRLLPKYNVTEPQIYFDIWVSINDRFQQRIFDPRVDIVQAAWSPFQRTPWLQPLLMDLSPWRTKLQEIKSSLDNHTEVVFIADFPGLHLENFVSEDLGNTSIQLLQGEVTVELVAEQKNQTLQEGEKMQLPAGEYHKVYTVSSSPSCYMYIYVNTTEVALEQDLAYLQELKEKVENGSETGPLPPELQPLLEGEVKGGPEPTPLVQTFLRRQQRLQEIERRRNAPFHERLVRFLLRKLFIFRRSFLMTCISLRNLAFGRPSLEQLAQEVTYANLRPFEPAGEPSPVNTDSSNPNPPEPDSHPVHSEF
Excerpt: as §1, §2, §3

[3] = biological target: Υ-glutamylcarboxylase; experiment: as above; type: biochemical; conditions: mean of triplicate experiments with S.E.M., read-out: I-50 (µm) in bovine system
Excerpt: as §1, §2, §3

[4] = test system: plasma prothrombin; experiment: Effect of dietary oils on plasma prothrombin concentration (rat feeding study); type: in vivo, Wistar rats; conditions: animal data extrapolated to adult reference person of about 60 kg

Row | Compound | IC50 [1] [µM] | IC50 [2] [µM] | IC50 ([3]; cofactor K) [µM] | IC50 ([3]; cofactor KO) [µM] | effective dose extrapolated to humans [4]
1 | COC1=C(OC)C(=O)C(CC=C(C)CCC=C(C)CCC=C(C)CCC=C(C)CCC=C(C)CCC=C(C)CCC=C(C)CCC=C(C)CCC=C(C)CCC=C(C)C)=C(C)C1=O [UQ-10, ubiquinone-10] | 36 ± 7 | 110 ± 17 | 76 ± 5 | 91 ± 15 | –
2 | CC(C)=CCC/C(C)=C/CC/C(C)=C/CC/C(C)=C/CC/C(C)=C/CC/C(C)=C/CC/C(C)=C/CC/C(C)=C/CC/C(C)=C/CC1=CC(=O)C(C)=C(C)C1=O [PQ-9, plastoquinone] | 39 ± 10 | 85 ± 11 | 59 ± 4 | 41 ± 7 | –
3 | COC1=C(OC)C(=O)C(CC=C(C)CCC=C(C)CCC=C(C)CCC=C(C)CCC=C(C)CCC=C(C)CCC=C(C)CCC=C(C)CCC=C(C)C)=C(C)C1=O [UQ-9, ubiquinone-9] | 25 ± 6 | 105 ± 14 | 86 ± 12 | 72 ± 8 | about 40 mg
